Experimental data reported in patent US20260276656A1, “GUT MICROBIOTA-RELATED METHODS FOR TREATING DEMENTIA AND AGE-DEPENDENT COGNITIVE DECLINE” (Albert-Ludwigs-Universitat Freiburg, priority 2019, published 2026).
“Also recorded” adds a separate entry of the source.

Assays:
[1] = tested on: Layer 2/3 pyramidal cells of the infralimbic or prelimbic mPFC; assay: Whole-cell patch-clamp recordings of spontaneous EPSCs and IPSCs in acute prefrontal brain slices; format: cell-based, mouse; conditions: pre-incubation with 10 μM
Protocol: Mice were injected intraperitoneally with ketamine/xylazine (100/13 mg/kg body weight) and intracardially perfused with ice-cold solution containing (in mM) NaCl 87, NaHCO325, KCl 2.5, NaH2PO4 1.25, glucose 10, sucrose 75, CaCl2 0.5 and MgCl2 7 (aerated with 95% O2/5% CO2). 300 μm thick frontal sections of the PFC were prepared with a vibratome and stored in artificial cerebrospinal fluid (ACSF) containing in mM: NaCl 125, NaHCO3 25, KCl 2.5, NaH2PO4 1.25, Glucose 25, CaCl2 2 and MgCl2 1 (equillibrated with 95% O2/5% CO2) first at 34° C. for 30 min, then at room temperature. Patch-clamp recordings were targeted to pyramidal neurons identified by their characteristic soma shape using pipettes pulled from borosilicate glass tubing and filled with a Cs-based pipette solution containing (in mM): CsCl 20, MgCl2 2, Na2ATP 2, QX-314 1, Hepes 10, TEACl 8, Cs-Gluconate 110. Recordings were performed at 30 to 34° C. using an Axopatch Multiclamp amplifier in voltage clamp mode. To isolate spontaneous excitatory postsynaptic currents (EPSCs), the resting membrane potential was held at −70 mV (the reversal potential of inhibitory postsynaptic currents (IPSCs). To record spontaneous IPSCs, the cell was held at 0 mV (the reversal potential of EPSCs). Both IPSCs and EPSCs were recorded from the same neurons in slices pre-incubated in 10 μM 6-valerobetaine or in control slices kept in ACSF. Spontaneous events were identified visually from lowpass-filtered data (<1 kHz). Amplitudes were measured from average events.

C57BL/6J mice [2] = assay: T-maze spontaneous alternation test (spatial working memory); format: in vivo, mouse; conditions: for spatial working memory (T maze test): systemic (intraperitoneal) injection, FIG. 11 left; for T maze performance: 5 mg/kg i.p. 1 h before
Protocol: (§1) In order to acutely deplete the gut microbiota, 15-16 months old SPF males were treated via oral gavage with a mixture of antibiotics (ABX), containing Cefoxitin (Santa Cruz Biotechnology), Gentamicin (Sigma-Aldrich) Metronidazole (Sigma-Aldrich), and Vancomycin (Hikma-pharma), each 10 mg/kg in sterile 1×PBS, for three consecutive days. On the fourth day, the mice were treated with one dose of Clindamycin hydrochloride (33.3 mg/kg) (Sigma-Aldrich). Fecal microbiota transplantations (FMTs) were started 24 h later. To deplete csf1-dependent cells in vivo, including microglia, mice were provided with CSF1R-inhibitor PLX5622 (Plexxicon Inc.) mixed into AIN-76A standard chow at 1200 mg/kg (Research Diets Inc.) ad libitum. Respective controls received AIN-76A standard chow. Mice were injected with 5 mg/kg δ-valerobetaine (MCAT, Germany) 1 h before behavioral testing.
(§2) For microbiota depletion studies, SPF mice were treated with 1 mg/ml of ampicillin (Auromedics), neomycin sulfate (Fisher), streptomycin (Sigma) and 0.5 mg/ml of vancomycin (Sagent) in the drinking water for 4-5 weeks (Khosravi et al., 2014). These mice were recolonized via FMT, which was achieved by oral gavage of a faecal slurry. Recipient mice had the food removed from the cage for 2 h prior to FMT. The faecal slurry was obtained by pooling faecal pellets from 8-14 donor mice. The pellets were weighed and resuspended by vortexing for 1 min in 1 mL PBS per 300 mg of faeces. After pelleting larger particles by centrifugation at 500×g for 5 min, the supernatant was collected for FMT. Each recipient mouse received 150 μl of faecal slurry by oral gavage. The remaining slurry was stored at −80° C. for 16S rRNA sequencing. Following FMT, the cages of recipient mice were replenished with dirty bedding and fresh faecal pellets from donor mice once and twice a week, respectively. Faecal pellets for 16S rRNA sequencing were collected the day before FMT and at the end of the experiment and were stored at −80° C. for DNA extraction. For re-colonization of ABX treated mice, FMTs from 8 weeks old or 15-16 months old males were undergone. Fresh fecal pellets are collected under a sterile hood and directly thoroughly homogenized in 0.1% L-Cysteine hydrochloride monohydrate in 1×PBS in order to maintain anaerobic microbes. The homogenates were spun down for 1 min, 200 g at 4° C. and the turbid supernatant was used to orally and rectally gavage the recipient mice. The FMT was performed twice 72 h apart.
(§3) NNN-trimethyl-5-aminovalerate was dissolved in 0.9% NaCl and administered i.p. at a dose of 200 mg/kg in a volume of 10 ml/kg. As control the vehicle NaCl was injected.
(§4) Mice were tested 40 min after drug- or vehicle injection or 4 weeks after FMT. We first performed the training run for the Novel-object recognition test, followed by the T maze test and then 6 h after the training session mice were tested in the Novel object recognition test. Spatial working memory was tested using the continuous spontaneous alternation task in a T-maze as described previously (Spowart-Manning, L. et al). Briefly, animals were set into the base of a T-maze and allowed to explore a randomly assigned T-maze arm until it returned to the base arm. Subsequently, the blocked arm was opened, and the animal was allowed to explore the complete maze. Once one arm of the T-maze was entered, the other arm was blocked until the animal returned to the base arm. Then, the exit of the base arm was blocked for 5 s and the animal was allowed to explore the maze again. The experiment was stopped after 14 free choice arm entries. Arm entries were scored as alternations if an animal chose the opposing arm compared to the arm visited immediately prior to the scored instance. The Novel Object Recognition (NOR) task was applied to evaluate recognition memory as published previously (Antunes, M. & Biala, G. et al). During the habituation phase, each mouse was allowed to explore two similar objects within a total exploration time of 20 s. […]

C57BL/6J mice [3] = assay: Novel object recognition (NOR) test (recognition memory); format: in vivo, mouse; conditions: for recognition memory (Novel Object Recognition test): systemic (intraperitoneal) injection, FIG. 11 right; for NOR test performance: 5 mg/kg i.p. 1 h before
Protocol: as §1, §2, §3, §4

[4] = young mice (2-month-old), PBS control

With `C[N+](C)(C)CCCCC(=O)[O-]` [NNN-trimethyl-5-aminovalerate, 5-(trimethylammonio) pentanoate] the “amplitude of spontaneous EPSCs” value [1] was “unaltered; also recorded: no significant effect”, the “amplitude of spontaneous IPSCs” value [1] was “not the amplitude; also recorded: no significant effect” and the “frequency of spontaneous EPSCs” value [1] was “unaltered”. The “frequency of spontaneous IPSCs” value [1] was “increased”, the “T maze: improvement in learning and memory after FMT from young mice” value (C57BL/6J mice [2]; old mice (15-16 months) +ABX+yFMT, 5 mg/kg i.p. 1 h before testing, FIG. 10F) was “abolished” and the “spatial working memory (T maze test)” value (C57BL/6J mice [2]; old mice (20-24-month-old)) was “no additional impairing effects”. The T maze performance (C57BL/6J mice [2]; old mice that had received gut microbiota from old mice (old+ABX+oFMT), FIG. 10F) was “no additional deteriorating effect”, the T maze performance (C57BL/6J mice [2]; young adult mice (8 weeks), versus vehicle, FIG. 10B) was “significantly worse” and the “spatial working memory (T maze test)” value (C57BL/6J mice [2]; [4]) was “reduced”. The “NOR: improvement in learning and memory after FMT from young mice” value (C57BL/6J mice [3]; old mice (15-16 months) +ABX+yFMT, 5 mg/kg i.p. 1 h before testing, FIG. 10G-H) was “abolished”, the “recognition memory (Novel Object Recognition test)” value (C57BL/6J mice [3]; old mice (20-24-month-old)) was “no additional impairing effects” and the NOR test performance (C57BL/6J mice [3]; old mice that had received gut microbiota from old mice (old+ABX+oFMT), FIG. 10G-H) was “no additional deteriorating effect”. For the same compound, the NOR test performance (C57BL/6J mice [3]; young adult mice (8 weeks), versus vehicle, FIG. 10C-D) was “significantly worse” and the “recognition memory (Novel Object Recognition test)” value (C57BL/6J mice [3]; [4]) was “reduced”.
